Read-outs that look alike come from different tables or passages of the source.
Key:
PL = conditions: cited from earlier work
[1] = tested on: RAW264.7 macrophage cells; parameters: method as in PMID 27514857; conditions: cited from earlier work
[2] = parameters: method as in PMID 28122265; conditions: cited from earlier work
[3] = Cupric-reducing antioxidant capacity (CUPRAC) assay
Experimental: CUPRAC assay was performed according to the modified protocol. Methanolic solutions of Trolox, utilized as a reference, were produced at varying concentrations (1000-62.5 μM). Subsequently, 1 mL of NH4CH3COO and 1 mL of CuCl2.2H2O and 1 of mL neocuproine (Nc) solutions were combined, followed by the addition of 0.5 mL of the sample solution (10 mg/mL) and 0.6 mL of distilled water (1.1-x) water into the mixture. Following the mixing of the tubes and incubation in darkness at ambient temperature for 30 minutes, the absorbance of the samples was measured at 450 nm. The antioxidant capacity of the samples was quantified as TEAC (μM) by comparison with Trolox, the reference chemical.

Pancreatic lipase (PL) = molecular target: T1, Pancreatic lipase (PL) (Homo sapiens, UniProt P16233); assay: Pancreatic lipase (PL) inhibition, p-nitrophenyl butyrate substrate; format: biochemical; conditions: for IC50: mean ± SD of triplicate, read-out: Enzyme inhibitory activities IC50 ± SD, Pancreatic lipase (PL) (converted)
T1 sequence (P16233 17-465): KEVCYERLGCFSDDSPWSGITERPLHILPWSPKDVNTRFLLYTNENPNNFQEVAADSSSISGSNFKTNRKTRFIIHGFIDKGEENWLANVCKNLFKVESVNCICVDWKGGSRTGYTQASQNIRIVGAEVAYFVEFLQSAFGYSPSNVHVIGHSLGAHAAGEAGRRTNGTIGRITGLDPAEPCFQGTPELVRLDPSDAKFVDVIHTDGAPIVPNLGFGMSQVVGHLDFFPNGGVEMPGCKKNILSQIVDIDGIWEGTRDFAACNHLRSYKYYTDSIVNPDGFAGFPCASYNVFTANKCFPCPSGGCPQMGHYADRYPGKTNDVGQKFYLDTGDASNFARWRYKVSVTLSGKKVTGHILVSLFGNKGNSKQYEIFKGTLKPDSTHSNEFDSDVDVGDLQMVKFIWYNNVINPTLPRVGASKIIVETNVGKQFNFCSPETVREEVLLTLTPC
Experimental: PL inhibition was assessed utilizing p-nitrophenyl butyrate as a substrate. The extracts were diluted using a buffer solution (0.1 M Tris-HCl, pH 8.0) to achieve a final concentration range of 12.5-400 µg/mL. […] An enzyme solution (EC 3.1.1.3, 200 units/mL) and a substrate solution (10 mM) were formulated in a buffer solution.
The experimental procedure was structured in microplate wells A (90 µL enzyme solution, 5 µL substrate solution, 5 µL buffer solution), B (90 µL enzyme solution, 10 µL buffer solution), C (90 µL enzyme solution, 5 µL sample solution, 5 µL substrate solution), and D (90 µL enzyme solution, 5 µL sample solution, 5 µL buffer solution). Microplates were incubated at 37 °C for 15 minutes before to and following the addition of substrates. The absorbance values were measured at 405 nm, and the percentage of pancreatic lipase enzyme inhibition was calculated. All concentrations were conducted in triplicate.
% Pancreatic lipase inhibition = [(A-B)-(C-D)/(A-B)] × 100
The IC50 values of the samples on lipase were derived using the graph equation established by plotting the observed percentage of enzyme inhibition against the logarithm of the concentrations (ordinate and abscissa).

[4] = tested on: hypercholesterolemic rats; parameters: method as in PMID 39615784; conditions: 100 mg/kg, hypercholesterolemic rats on a high-fat diet; cited from earlier work
[5] = Ferric reducing antioxidant power (FRAP) assay
Experimental: The Fe(II)-TPTZ complex, generated by the reduction of the TPTZ complex in the presence of antioxidants, has a blue colour and is measured at 595 nm. […] Absorbance measurements were recorded at 595 nm after 20 minutes at room temperature. […] FRAP values were reported as μM Trolox equivalents per gram of material.

[6] = tested on: hypercholesterolemic hamsters; conditions: cited from earlier work
3T3-L1 adipocytes = conditions: cited from earlier work

O=C(O)C(O)Cc1ccc(O)c(O)c1 (stereo not shown) [Danshensu, 3,4-dihydroxyphenyl lactic acid]
PL IC50 (PL): 65.160 ± 4.443 µg/mL
lipid accumulation [1]: reduce lipid accumulation
radical scavenging ability [2]: equivalent to that of quercetin

O=C(/C=C/c1ccc(O)c(O)c1)O[C@H](Cc1ccc(O)c(O)c1)C(=O)O [Rosmarinic acid]
PL inhibitory activity IC50 (PL): 125.2 µg/mL
lipase inhibitory activity IC50 (PL): 49.421 ± 1.448 µg/mL
IC50 (PL; read-out: lipase inhibitory activity IC50): 62.8 ± 2.7 µM
CUPRAC [3]: 1801.389 ± 5.500 µM TEAC
CUPRAC (copper reducing antioxidant power) ([3]; sample 10 mg/mL): 1801.389 ± 5.500 µM Trolox equivalent/gram
IC50 (Pancreatic lipase (PL)): 134 µM
cholesterol and triglyceride levels [4]: improve cholesterol and triglyceride levels comparably to simvastatin
radical scavenging ability [2]: equivalent to that of quercetin
FRAP [5]: 1274.400 ± 1.633 µM TEAC
FRAP (iron reducing antioxidant power) ([5]; sample 10 mg/mL): 1274.400 ± 1.633 µM Trolox equivalent/gram

CC[C@H](CC[C@@H](C)[C@H]1CC[C@H]2[C@@H]3CC=C4C[C@@H](O)CC[C@]4(C)[C@H]3CC[C@]12C)C(C)C [β-sitosterol]
PL inhibition (PL; 100 µg/mL): 79.1 ± 11.3%
PL inhibition (PL; 4 mg/mL): 60.67% ± 0.53
PL inhibition (PL; first value of two): 2.99 ± 0.80%
PL inhibition (PL; second value of two): 8.80 ± 4.15%
cholesterol absorption and plasma cholesterol levels [6]: decrease cholesterol absorption and plasma cholesterol levels
IC50 (Pancreatic lipase (PL)): 101 µM
inhibition at 100 µg/mL (Pancreatic lipase (PL); read-out: PL inhibition): 68.5%
adipogenesis (intracellular triglyceride content and lipid accumulation) (3T3-L1 adipocytes): efficiently prevented adipogenesis
cytotoxicity (3T3-L1 adipocytes): without including notable cytotoxicity

Source: article PMC12037426, “Lipid Metabolism-Related Enzyme Inhibition and Antioxidant Potential of the Extracts and Phytochemical Compounds from Trachystemon orientalis (L.) D.Don” (Plant Foods for Human Nutrition (Dordrecht, Netherlands), 2025)
